The text below walks through data of patent US8202856B2 (Merck Serono SA, priority 2007, dated 2012).

One assay deals with S1P3 receptor (Homo sapiens, UniProt Q99500). The experiment in a line: 35S-GTPγS binding, membranes from CHO cells expressing S1P3. In kind it is biochemical. The following applies: CHO cell membranes expressing S1P3. The protocol:
Receptor binding assay: Membranes were prepared from CHO cells expressing S1P1 or S1P3 for use in ligand and 35S-GTPTS binding studies. Cells were suspended in 50 mM TRIS, pH 7.4, 2 mM EDTA, 250 mM Sucrose (buffer A) and 1× Complete protease inhibitor cocktail (Roche), and disrupted at 4° C. by nitrogen decompression using a cell disruption bomb (Parr Instrument). Following centrifugation at 1000 RPM for 10 min at 4° C., the supernatant was suspended in buffer A and centrifuged again at 19000 RPM for 60 min at 4° C. The pellet was then suspended in 10 mM HEPES, pH 7.4, 1 mM EDTA, 250 mM Sucrose (Buffer B), and 1× Complete EDTA-free protease inhibitor cocktail and homogenized using a potter. Membranes were flash frozen in liquid nitrogen and stored at −80° C. [33P]sphingosine 1-phosphate (3000 Ci/mmol; American Radiolabeled Chemicals, Inc.) was added to test compounds in DMSO. Membranes and WGA SPA beads (GE Healthcare) were added to give a final volume of 100 μl in 96-well plates with assay concentrations of […] [33P]sphingosine 1-phosphate (respectively for S1P1 or S1P3), 50 mM HEPES, pH 7.5, 5 mM MgCl2, 100 mM NaCl, 0.4% fatty acid-free BSA, 1-5 μg/well of proteins and 100 μg/well of WGA SPA beads. Binding was performed for 60 min at room temperature on a shaker and bound radioactivity was measured on a PerkinElmer 1450 MicroBeta counter. Specific binding was calculated by subtracting remaining radioactivity in the presence of 1000-fold excess of unlabeled S1P. Binding data were analyzed using the GraphPad Prism program.
Measurements of ^35S-GTPγS Binding: Membranes (1 to 10 μg protein) prepared as described above, were incubated in 96-well Scintiplates (PerkinElmer) with test compounds diluted in DMSO, in 180 μl of 20 mM HEPES, pH 7.4, 10 mM MgCl2, 2 μg/well Saponin, 0.2% fatty acid free BSA (Assay buffer), 140 mM NaCl and 1.7 μM GDP. The assay was initiated with the addition of 20 μl of 1.5 nM [35S]-GTPγS (1100 Ci/mmol; GE Healthcare) in assay buffer. After 60 min incubation at 30° C. on a shaker, plates were centrifuged for 10 min at 2000 RPM. Supernatant was discarded and membrane bound radioactivity was measured on a PerkinElmer 1450 MicroBeta counter. Triplicate samples were averaged and expressed as response relative to S1P activation in absence of compound (n=2).

The target of a further assay is S1P1 receptor (Homo sapiens, UniProt P21453). As to the kind of experiment: 35S-GTPγS binding, membranes from CHO cells expressing S1P1. It counts as biochemical. The conditions noted are these: CHO cell membranes expressing S1P1. In short, it runs like this: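 Membranes (1–10 μg) from CHO cells expressing the receptor were incubated with compound in 20 mM HEPES pH 7.4, 10 mM MgCl2, 140 mM NaCl, 1.7 μM GDP, saponin and 0.2% BSA. [35S]GTPγS (added at 1.5 nM) was then bound for 60 min at 30 °C. Membrane-bound radioactivity, averaged over triplicates, is expressed relative to S1P activation (n=2).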
Sequence of S1P1 receptor (P21453 whole entry): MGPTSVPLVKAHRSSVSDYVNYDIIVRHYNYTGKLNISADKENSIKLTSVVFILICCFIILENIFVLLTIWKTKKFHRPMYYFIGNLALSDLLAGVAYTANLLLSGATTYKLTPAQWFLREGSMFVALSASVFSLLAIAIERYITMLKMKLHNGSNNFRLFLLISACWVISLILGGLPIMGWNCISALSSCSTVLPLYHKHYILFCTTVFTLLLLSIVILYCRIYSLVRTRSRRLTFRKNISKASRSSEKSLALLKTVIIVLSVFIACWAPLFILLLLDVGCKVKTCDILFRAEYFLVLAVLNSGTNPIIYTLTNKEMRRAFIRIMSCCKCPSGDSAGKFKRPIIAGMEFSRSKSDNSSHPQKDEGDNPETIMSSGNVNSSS

Sequence of S1P3 receptor (Q99500 whole entry): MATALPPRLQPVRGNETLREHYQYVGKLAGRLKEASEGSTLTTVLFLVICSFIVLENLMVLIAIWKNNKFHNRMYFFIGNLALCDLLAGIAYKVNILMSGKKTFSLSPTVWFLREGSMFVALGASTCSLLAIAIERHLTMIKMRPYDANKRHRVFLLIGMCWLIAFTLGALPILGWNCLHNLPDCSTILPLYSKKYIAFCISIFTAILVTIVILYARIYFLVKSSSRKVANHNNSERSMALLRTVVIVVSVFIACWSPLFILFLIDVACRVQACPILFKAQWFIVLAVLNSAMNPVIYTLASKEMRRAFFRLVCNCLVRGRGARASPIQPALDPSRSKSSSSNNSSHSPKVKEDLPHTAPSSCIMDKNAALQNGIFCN

As a reminder, the EC50 is the midpoint of the concentration-response curve. High values mean weaker potency, low ones greater potency. For `COCc1c(-c2nc(-c3cc(F)ccc3F)no2)nnn1-c1ccccc1F` [Example 10, 3-(2,5-Difluorophenyl)-5-[1-(2-fluorophenyl)-5-(methoxymethyl)-1H-1,2,3-triazole-4-yl]-1,2,4-oxadiazole], the EC50 at S1P3 receptor was greater than 30 µM; on S1P1 receptor, 45 nM.

With `Fc1ccc(F)c(-c2noc(-c3nnn(-c4ccccc4F)c3-c3ccccc3)n2)c1` [Example 12, 3-(2,5-Difluorophenyl)-5-[1-(2-fluorophenyl)-5-phenyl-1H-1,2,3-triazole-4-yl]-1,2,4-oxadiazole], the EC50 stood at 14 µM at S1P3 receptor and 7 nM at S1P1 receptor.

With `Fc1ccccc1-n1nnc(-c2nc(-c3ccncc3)no2)c1-c1ccncc1` [Example 41, 4-[1-(2-fluorophenyl)-4-(3-pyridin-4-yl-1,2,4-oxadiazol-5-yl)-1H-1,2,3-triazol-5-yl]pyridine], the values for the EC50 at S1P3 receptor and on S1P1 receptor were greater than 20 µM and 160 nM, respectively.

For `O=C(O)c1ccc(-c2noc(-c3nnn(-c4ccccc4F)c3-c3ccccc3)n2)c(F)c1` [Example 33, 3-Fluoro-4-{5-[1-(2-fluorophenyl)-5-phenyl-1H-1,2,3-triazole-4-yl]-1,2,4-oxadiazole-3-yl}benzoic acid], the EC50 is greater than 20 µM on S1P3 receptor and 501 nM on S1P1 receptor.

In the case of `Fc1ccccc1-c1noc(-c2nnn(-c3ccccc3F)c2C2CCOCC2)n1` [Example 59, 3-(2-fluorophenyl)-5-[1-(2-fluorophenyl)-5-(tetrahydro-2H-pyran-4-yl)-1H-1,2,3-triazol-4-yl]-1,2,4-oxadiazole], the concentration giving a half-maximal response (EC50) at S1P3 receptor is greater than 20 µM; on S1P1 receptor it was 154 nM.

For `Oc1ccc(-c2noc(-c3nnn(-c4ccccc4F)c3-c3ccccc3)n2)c(F)c1` [Example 18, 3-Fluoro-4-{5-[1-(2-fluorophenyl)-5-phenyl-1H-1,2,3-triazole-4-yl]-1,2,4-oxadiazole-3-yl}phenol], the EC50 worked out at 0.221 µM on S1P3 receptor and 22 nM on S1P1 receptor.

For `CCCCc1c(-c2nc(-c3ccccc3)no2)nnn1-c1ccccc1F` [Example 17, 5-[5-Butyl-1-(2-fluorophenyl)-1H-1,2,3-triazole-4-yl]-3-phenyl-1,2,4-oxadiazole], the EC50 at S1P3 receptor was determined as 4.9 µM; on S1P1 receptor it was 144 nM.

`COCc1c(-c2nc(-c3ccc4[nH]ccc4c3)no2)nnn1-c1ccccc1F` [Example 65, 5-{5-[1-(2-fluorophenyl)-5-(methoxymethyl)-1H-1,2,3-triazol-4-yl]-1,2,4-oxadiazol-3-yl}-1H-indole]: the results for the EC50 at S1P3 receptor and at S1P1 receptor were greater than 20 µM and 119 nM, respectively.

For the compound `COCc1c(-c2nc(-c3ccc(F)cc3F)no2)nnn1-c1ccccc1F` [Example 8, 3-(2,4-Difluorophenyl)-5-[1-(2-fluorophenyl)-5-(methoxymethyl)-1H-1,2,3-triazole-4-yl]-1,2,4-oxadiazole], the values for the half-maximal effective concentration (EC50) on S1P3 receptor and at S1P1 receptor were greater than 10 µM and 744 nM, respectively.

`COc1ccccc1-c1noc(-c2nnn(-c3ccccc3F)c2-c2ccccc2)n1` [Example 22, 5-[1-(2-Fluorophenyl)-5-phenyl-1H-1,2,3-triazole-4-yl]-3-(2-methoxyphenyl)-1,2,4-oxadiazole]: the EC50 on S1P3 receptor turned out to be 6.86 µM; on S1P1 receptor, 140 nM.

With `CNCc1ccc(-c2noc(-c3nnn(-c4ccccc4F)c3-c3ccncc3)n2)cc1` [Example 129, 1-(4-{5-[1-(2-fluorophenyl)-5-pyridin-4-yl-1H-1,2,3-triazol-4-yl]-1,2,4-oxadiazol-3-yl}phenyl)-N-methylmethanamine], the EC50 at S1P3 receptor turned out to be 4.56 µM; at S1P1 receptor it was 10 nM.

Regarding `Fc1ccccc1-c1noc(-c2nnn(-c3ccccc3F)c2-c2ccncc2)n1` [Example 32, 4-{1-(2-Fluorophenyl)-4-[3-(2-fluorophenyl)-1,2,4-oxadiazole-5-yl]-1H-1,2,3-triazole-5-yl}pyridine], the EC50 at S1P3 receptor amounted to 1.2 µM; at S1P1 receptor it was 20 nM.

Take `CCc1c(-c2nc(-c3cc(F)ccc3F)no2)nnn1-c1ccccc1F` [Example 7, 3-(2,5-Difluorophenyl)-5-[5-ethyl-1-(2-fluorophenyl)-1H-1,2,3-triazole-4-yl]-1,2,4-oxadiazole]: the concentration giving a half-maximal response (EC50) on S1P3 receptor was greater than 30 µM.
